Results as given in US20250276982A1, “KRAS INHIBITORS” (ASCENTAGE PHARMA (SUZHOU) CO., LTD., priority 2021, published 2025).

What was measured:
[1] = system: p-ERK in AGS cells; experiment: p-ERK assay in AGS cells (fixed cells, anti-p-ERK / β-Actin antibodies, IR imaging); assay type: cell-based; details: Homo sapiens, 3 h at 37° C., p-ERK detected by antibody with β-Actin, IR fluorescence
Method: The expression of p-ERK was detected in this assay. At first, the AGS cells (40000 cells/well) were seeded in 96-well plate culture overnight and treated with KRAS-G12D compounds inhibitors at concentrations of 1, 0.33, 0.11, 0.03, 0.01, 0.004, 0.001, 0.0004, 0.0001 μM for 3 h at 37° C. Then, add an equal volume (100 μL) of 8% paraformaldehyde solution to fix and crosslink the cells to the microplate for 15 minutes. Add 100 μL of 1× permeabilization solution to wells for 30 min and add 100 μL of 1× blocking solution for 2 h. Wash with PBS 3 times after each reaction. At last, Incubation with primary antibody (Anti-mouse β-Actin and Anti-rabbit p-ERK) and secondary antibody (Goat anti-Mouse IgG H&L IRDye 800CW and Goat anti-Rabbit IgG H&L IRDye 680RW) for 2 h, As appropriate, image the microplate with an IR scanner or develop the HRP labeled microplate and read it with a spectrophotometer. The fluorescence signal was monitored using a microplate reader (Azure biosystems, Sapphire biomolecular imager) using excitation and emission wavelengths of 680 and 800 nm, respectively. Export data. The inhibitor dose-reponse curves were analyzed using normalized IC50 regression curve fitting with control based normalization.

[2] = system: GP2d cells; experiment: Cellular proliferation assay in GP2d cells (CellTiterGlo luminescent cell viability assay); assay type: cell-based; details: 72 hours treatment, CellTiter-Glo
Method: Example 32: Cellular Proliferation Assay in GP2d Cells
The inhibitory effect of test compounds on cellular proliferation was determined using CellTiterGlo® luminescent cell viability assay (Promega) following manufacturer's instruction.
GP2d cells (ECACC #95090715) were cultured in DMEM medium supplemented with 10% fetal bovine serum, 10 U/ml penicillin and 10 ug/ml streptomycin. Cells were plated in 96-well plates at a density of 2000 cells/well and allowed attach for […]. Then the cells were treated with various concentrations of test compounds for 72 hours. CellTiter-Glo® Reagent was added to wells and incubated for 10 minutes at room temperature. The plates were read on GloMax® 96 Microplate Luminometer or compatible microplate readers. The percentage of cellular viability was calculated as: […]

| Compound | IC50 [1] | IC50 [2] |
| --- | --- | --- |
| Oc1cc(-c2ccc3c(N4C[C@H]5CC[C@@H](C4)N5)nc(OCC4(CN5C6CCC5COC6)CC4)nc3c2F)c2c3c(ccc2c1)CCC3 [Example 27, 9-(2-((1-((3-oxa-8-azabicyclo[3.2.1]octan-8-yl)methyl)cyclopropyl)methoxy)-4-((1R,5S)-3,8-diazabicyclo[3.2.1]octan-3-yl)-8-fluoroquinazolin-7-yl)-2,3-dihydro-1H-cyclopenta[a]naphthalen-7-ol] | 131 nM | 370 nM |
| Oc1cc(-c2c(F)cc3c(N4C[C@H]5CC[C@@H](C4)N5)nc(OCC4(CN5C6CCC5COC6)CC4)nc3c2F)c2c3c(ccc2c1)CCC3 [Example 28, 9-(2-((1-((3-oxa-8-azabicyclo[3.2.1]octan-8-yl)methyl)cyclopropyl)methoxy)-4-((1R,5S)-3,8-diazabicyclo[3.2.1]octan-3-yl)-6,8-difluoroquinazolin-7-yl)-2,3-dihydro-1H-cyclopenta[a]naphthalen-7-ol] | 87 nM | 253 nM |
| Oc1cc(-c2ncc3c(N4C[C@H]5CC[C@@H](C4)N5)nc(OCCCN4C5CCC4COC5)nc3c2F)c2c3c(ccc2c1)CCC3 [Example 10, 9-(2-(3-(3-oxa-8-azabicyclo[3.2.1]octan-8-yl)propoxy)-4-((1R,5S)-3,8-diazabicyclo[3.2.1]octan-3-yl)-8-fluoropyrido[4,3-d]pyrimidin-7-yl)-2,3-dihydro-1H-cyclopenta[a]naphthalen-7-ol] | 205 nM | 261 nM |
| Oc1cc(-c2ccc3c(N4C[C@H]5CC[C@@H](C4)N5)nc(OCC4(CN5CCOCC5)CC4)nc3c2F)c2c3c(ccc2c1)CCC3 [Example 26, 9-(4-((1R,5S)-3,8-diazabicyclo[3.2.1]octan-3-yl)-8-fluoro-2-((1-(morpholinomethyl)cyclopropyl)methoxy)quinazolin-7-yl)-2,3-dihydro-1H-cyclopenta[a]naphthalen-7-ol] | 39 nM | 195 nM |
| Fc1c(-c2cccc3ccc4c(c23)CCO4)ncc2c(N3C[C@H]4CC[C@@H](C3)N4)nc(OC[C@@]34CCCN3C[C@H](F)C4)nc12 [Example 3, 4-((1R,5S)-3,8-diazabicyclo[3.2.1]octan-3-yl)-7-(1,2-dihydronaphtho[2,1-b]furan-9-yl)-8-fluoro-2-(((2R,7aS)-2-fluorotetrahydro-1H-pyrrolizin-7a(5H)-yl)methoxy)pyrido[4,3-d]pyrimidine] | 8800 nM | 8800 nM |
| Oc1cc(-c2ncc3c(N4C[C@H]5CC[C@@H](C4)N5)nc(OC[C@@]45CCCN4C[C@H](F)C5)nc3c2F)c2c(ccc3ccsc32)c1 [Example 15, 9-(4-((1R,5S)-3,8-diazabicyclo[3.2.1]octan-3-yl)-8-fluoro-2-(((2R,7aS)-2-fluorotetrahydro-1H-pyrrolizin-7a(5H)-yl)methoxy)pyrido[4,3-d]pyrimidin-7-yl)naphtho[1,2-b]thiophen-7-ol] | 159 nM | 541 nM |
| Oc1cc(-c2ncc3c(N4C[C@H]5CC[C@@H](C4)N5)nc(OC[C@@]45CCCN4C[C@H](F)C5)nc3c2F)c2c(ccn3cccc23)c1 [Example 22, 10-(4-((1R,5S)-3,8-diazabicyclo[3.2.1]octan-3-yl)-8-fluoro-2-(((2R,7aS)-2-fluorotetrahydro-1H-pyrrolizin-7a(5H)-yl)methoxy)pyrido[4,3-d]pyrimidin-7-yl)pyrrolo[2,1-a]isoquinolin-8-ol] |  | 3340 nM |
| CN(C)CC1(COc2nc(N3C[C@H]4CC[C@@H](C3)N4)c3cnc(-c4cc(O)cc5ccc6c(c45)CCC6)c(F)c3n2)CC1 [Example 8, 9-(4-((1R,5S)-3,8-diazabicyclo[3.2.1]octan-3-yl)-2-((1-((dimethylamino)methyl)cyclopropyl)methoxy)-8-fluoropyrido[4,3-d]pyrimidin-7-yl)-2,3-dihydro-1H-cyclopenta[a]naphthalen-7-ol] | 41 nM | 284 nM |
| Oc1cc(-c2ncc3c(N4C[C@H]5CC[C@@H](C4)N5)nc(OC[C@@]45CCCN4C[C@H](F)C5)nc3c2F)c2c(ccc3occc32)c1 [Example 5, 9-(4-((1R,5S)-3,8-diazabicyclo[3.2.1]octan-3-yl)-8-fluoro-2-(((2R,7aS)-2-fluorotetrahydro-1H-pyrrolizin-7a(5H)-yl)methoxy)pyrido[4,3-d]pyrimidin-7-yl)naphtho[2,1-b]furan-7-ol] | 37 nM | 2860 nM |
| Oc1cc(-c2ncc3c(N4C[C@H]5CC[C@@H](C4)N5)nc(OCC4(CN5CCOCC5)CC4)nc3c2F)c2c3c(ccc2c1)CCC3 [Example 9, 9-(4-((1R,5S)-3,8-diazabicyclo[3.2.1]octan-3-yl)-8-fluoro-2-((1-(morpholinomethyl)cyclopropyl)methoxy)pyrido[4,3-d]pyrimidin-7-yl)-2,3-dihydro-1H-cyclopenta[a]naphthalen-7-ol] | 31 nM | 175 nM |
| Oc1cc(-c2ccc3c(N4C[C@H]5CC[C@@H](C4)N5)nc(OCC4(CN5CC6COCC6C5)CC4)nc3c2F)c2c3c(ccc2c1)CCC3 (stereo partly drawn) [Example 24, 9-(4-((1R,5S)-3,8-diazabicyclo[3.2.1]octan-3-yl)-8-fluoro-2-((1-((tetrahydro-1H-furo[3,4-c]pyrrol-5 (3H)-yl)methyl)cyclopropyl)methoxy)quinazolin-7-yl)-2,3-dihydro-1H-cyclopenta[a]naphthalen-7-ol] | 24 nM | 120 nM |
| Oc1cc(-c2ncc3c(N4C[C@H]5CC[C@@H](C4)N5)nc(OCC4(CN5C6CCC5COC6)CC4)nc3c2F)c2c3c(ccc2c1)CCC3 [Example 23, 9-(2-((1-((3-oxa-8-azabicyclo[3.2.1]octan-8-yl)methyl)cyclopropyl)methoxy)-4-((1R,5S)-3,8-diazabicyclo[3.2.1]octan-3-yl)-8-fluoropyrido[4,3-d]pyrimidin-7-yl)-2,3-dihydro-1H-cyclopenta[a]naphthalen-7-ol] | 33 nM | 908 nM |
| Oc1cc(-c2ncc3c(N4C[C@H]5CC[C@@H](C4)N5)nc(OC[C@@]45CCCN4C[C@H](F)C5)nc3c2F)c2c3c(ccc2c1)CCCC3 [Example 16, 4-(4-((1R,5S)-3,8-diazabicyclo[3.2.1]octan-3-yl)-8-fluoro-2-(((2R,7aS)-2-fluorotetrahydro-1H-pyrrolizin-7a(5H)-yl)methoxy)pyrido[4,3-d]pyrimidin-7-yl)-5,6,7,8-tetrahydrophenanthren-2-ol] | 5 nM | 849 nM |
| OCC1Cc2ccc3cc(O)cc(-c4ncc5c(N6C[C@H]7CC[C@@H](C6)N7)nc(OC[C@@]67CCCN6C[C@H](F)C7)nc5c4F)c3c2C1 (stereo partly drawn) [Example 18, 9-(4-((1R,5S)-3,8-diazabicyclo[3.2.1]octan-3-yl)-8-fluoro-2-(((2R,7aS)-2-fluorotetrahydro-1H-pyrrolizin-7a(5H)-yl)methoxy)pyrido[4,3-d]pyrimidin-7-yl)-2-(hydroxymethyl)-2,3-dihydro-1H-cyclopenta[a]naphthalen-7-ol] | 240 nM | 17000 nM |
| CC1CCc2ccc3cc(O)cc(-c4ncc5c(N6C[C@H]7CC[C@@H](C6)N7)nc(OC[C@@]67CCCN6C[C@H](F)C7)nc5c4F)c3c21 (stereo partly drawn) [Example 14, 9-(4-((1R,5S)-3,8-diazabicyclo[3.2.1]octan-3-yl)-8-fluoro-2-(((2R,7aS)-2-fluorotetrahydro-1H-pyrrolizin-7a(5H)-yl)methoxy)pyrido[4,3-d]pyrimidin-7-yl)-1-methyl-2,3-dihydro-1H-cyclopenta[a]naphthalen-7-ol] | 85 nM | 429 nM |
| Oc1cc(-c2c(Cl)cc3c(N4C[C@H]5CC[C@@H](C4)N5)nc(OC[C@@]45CCCN4C[C@H](F)C5)nc3c2F)c2c3c(ccc2c1)CCC3 [Example 31, 9-(4-((1R,5S)-3,8-diazabicyclo[3.2.1]octan-3-yl)-6-chloro-8-fluoro-2-(((2R,7aS)-2-fluorotetrahydro-1H-pyrrolizin-7a(5H)-yl)methoxy)quinazolin-7-yl)-2,3-dihydro-1H-cyclopenta[a]naphthalen-7-ol] |  | 737 nM |
| Oc1cc(-c2ncc3c(N4C[C@H]5CC[C@@H](C4)N5)nc(OC[C@@]45CCCN4C[C@H](F)C5)nc3c2F)c2c(c1)cc1n2CCC1 [Example 19, 5-(4-((1R,5S)-3,8-diazabicyclo[3.2.1]octan-3-yl)-8-fluoro-2-(((2R,7aS)-2-fluorotetrahydro-1H-pyrrolizin-7a(5H)-yl)methoxy)pyrido[4,3-d]pyrimidin-7-yl)-2,3-dihydro-1H-pyrrolo[1,2-a]indol-7-ol] |  | 3060 nM |
| Oc1cc(-c2cc3nc(OC[C@@]45CCCN4C[C@H](F)C5)nc(N4C[C@H]5CC[C@@H](C4)N5)c3cn2)c2c3c(ccc2c1)CCC3 [Example 30, 9-(4-((1R,5S)-3,8-diazabicyclo[3.2.1]octan-3-yl)-2-(((2R,7aS)-2-fluorotetrahydro-1H-pyrrolizin-7a(5H)-yl)methoxy)pyrido[4,3-d]pyrimidin-7-yl)-2,3-dihydro-1H-cyclopenta[a]naphthalen-7-ol] |  | 409 nM |
